SMILES strings stand for the structures.

Sequence of Human α2δ-1 Subunit of Cav2.2 Calcium Channel (P54289 25-1103): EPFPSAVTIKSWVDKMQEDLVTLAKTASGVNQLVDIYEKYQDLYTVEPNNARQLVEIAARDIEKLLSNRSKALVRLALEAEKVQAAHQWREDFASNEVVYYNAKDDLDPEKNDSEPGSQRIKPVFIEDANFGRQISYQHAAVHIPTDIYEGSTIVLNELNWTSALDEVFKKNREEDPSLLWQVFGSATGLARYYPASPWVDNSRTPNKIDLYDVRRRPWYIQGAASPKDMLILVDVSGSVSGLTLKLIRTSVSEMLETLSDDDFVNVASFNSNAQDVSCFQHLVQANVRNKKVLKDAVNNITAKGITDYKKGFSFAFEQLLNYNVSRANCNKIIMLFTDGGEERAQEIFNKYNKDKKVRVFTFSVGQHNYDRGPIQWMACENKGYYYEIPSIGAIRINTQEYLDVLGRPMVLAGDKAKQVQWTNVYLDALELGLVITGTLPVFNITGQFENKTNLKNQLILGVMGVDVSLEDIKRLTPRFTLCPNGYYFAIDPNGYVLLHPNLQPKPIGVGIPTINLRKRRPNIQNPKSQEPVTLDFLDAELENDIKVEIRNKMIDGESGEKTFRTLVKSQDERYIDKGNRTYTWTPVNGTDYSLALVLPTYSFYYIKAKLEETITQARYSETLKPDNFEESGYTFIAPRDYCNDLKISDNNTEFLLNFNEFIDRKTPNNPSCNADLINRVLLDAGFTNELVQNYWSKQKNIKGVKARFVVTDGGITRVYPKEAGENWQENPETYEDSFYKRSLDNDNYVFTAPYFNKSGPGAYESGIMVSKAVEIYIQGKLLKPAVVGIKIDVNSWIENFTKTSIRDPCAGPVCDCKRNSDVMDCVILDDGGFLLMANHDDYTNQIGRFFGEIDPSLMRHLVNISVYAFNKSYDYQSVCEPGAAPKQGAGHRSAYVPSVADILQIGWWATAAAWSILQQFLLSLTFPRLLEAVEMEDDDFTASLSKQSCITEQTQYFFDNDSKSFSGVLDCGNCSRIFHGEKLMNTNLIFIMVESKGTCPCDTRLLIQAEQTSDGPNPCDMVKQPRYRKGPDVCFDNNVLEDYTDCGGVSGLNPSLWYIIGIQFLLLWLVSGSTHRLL

One test has as its target Human α2δ-1 Subunit of Cav2.2 Calcium Channel (Homo sapiens, UniProt P54289). Nature of the test: biochemical. In kind it is binding.
Settings: not given
For the molecule `CNCCC(OCc1cccc(CN2CCC(c3ccccc3)(N(C)C)CC2)c1)c1ccccc1` (stereo not drawn) [Example 25], the Ki is 500 to 3000 nM.

Regarding `CNCC[C@@H](OCc1cccc(CN2CCC(c3ccccc3)(N(C)C)CC2)c1)c1ccccc1` [Example 26, (R)-N,N-dimethyl-1-(3-((3-(methylamino)-1-phenylpropoxy)methyl)benzyl)-4-phenylpiperidin-4-amine], the Ki fell in the range of 500 to 3000 nM. Same read-out and setting: next, `CNCCC(Oc1cccc(N2C[C@@H](C)N[C@@H](C)C2)c1)c1cccs1` (stereo partly drawn) [Example 44, 3-(3-((3S,5R)-3,5-dimethylpiperazin-1-yl)phenoxy)-N-methyl-3-(thiophen-2-yl)propan-1-amine]: 100 to 500 nM; `CNCCC(Oc1ccc(CN2CCC(c3ccccc3)(N(C)C)CC2)cc1)c1cccs1` (stereo not drawn) [Example 51, N,N-dimethyl-1-(4-(3-(methylamino)-1-(thiophen-2-yl)propoxy)benzyl)-4-phenylpiperidin-4-amine]: more than 3000 nM; `CNCCC(Oc1ccc(CN2CCCc3ccccc32)c(F)c1)c1cccs1` (stereo not drawn) [Example 54, 3-(4-((3,4-Dihydroquinolin-1(2H)-yl)methyl)-3-fluorophenoxy)-N-methyl-3-(thiphen-2-yl)propan-1-amine]: more than 3000 nM. Same read-out and setting: next, `CNCCC(Oc1ccc(CN2CCc3ccccc3C2)c(F)c1)c1cccs1` (stereo not drawn) [Example 55, 3-(4-((3,4-Dihydroisoquinolin-2(1H)-yl)methyl)-3-fluorophenoxy)-N-methyl-3-(thiophen-2-yl)propan-1-amine]: more than 3000 nM. Same read-out and setting: next, `CNCCC(Oc1ccc(CCN2CCC(c3ccccc3)(N(C)C)CC2)cc1)c1cccs1` (stereo not drawn) [Example 57, N,N-dimethyl-1-(4-(3-(methylamino)-1-(thiophen-2-yl)propoxy)phenethyl)-4-phenylpiperidin-4-amine]: more than 3000 nM.

The same test, now with this note: Table 1; human α2δ-1 enriched membranes, 15 nM [3H]-Gabapentin; read-out: Ki (nM) alpha2delta Hum.
In the case of `CNCCC(Oc1cccc(N2CCC(c3ccccc3)(N(C)C)CC2)c1)c1cccs1` (stereo not drawn) [Example 43, N,N-dimethyl-1-(3-(3-(methylamino)-1-(thiophen-2-yl)propoxy)phenyl)-4-phenylpiperidin-4-amine], the Ki fell in the range of 500 to 3000 nM.

The same test, now with this note: Table 2 (dual compounds); human α2δ-1 enriched membranes, 15 nM [3H]-Gabapentin; read-out: Ki (nM) alpha2delta Hum.
Turning to `CNCCC(Oc1cccc(N2CCC(c3ccccc3)(N(C)C)CC2)c1)c1cccs1` (stereo not drawn) [Example 43, N,N-dimethyl-1-(3-(3-(methylamino)-1-(thiophen-2-yl)propoxy)phenyl)-4-phenylpiperidin-4-amine], the Ki lay within 500 to 3000 nM.

The test is the same for the next values; noted with them: read-out: Ki (nM) alpha2delta Hum.
Regarding `CNCC[C@@H](OCc1cccc(CN2CCN([C@]3(C(=O)c4ccccn4)CCOC(C)(C)C3)CC2)c1)c1ccccc1` [Example 29, ((R)-2,2-dimethyl-4-(4-(3-(((R)-3-(methylamino)-1-phenylpropoxy)methyl)benzyl)piperazin-1-yl)tetrahydro-2H-pyran-4-yl)(pyridin-2-yl)methanone], the Ki lay in the range of 500 to 3000 nM. As to `CC[C@@]1(N2CCN(Cc3cccc(CO[C@H](CCNC)c4ccccc4)c3)CC2)CCOC(C)(C)C1` [Example 30, (R)-3-((3-((4-((R)-4-ethyl-2,2-dimethyltetrahydro-2H-pyran-4-yl)piperazin-1-yl)methyl)benzyl)oxy)-N-methyl-3-phenylpropan-1-amine], the Ki is more than 3000 nM. Same read-out and setting: the result for `CC[C@]1(N2CCN(Cc3cccc(CO[C@H](CCNC)c4ccccc4)c3)CC2)CCOC(C)(C)C1` [Example 31, (R)-3-((3-((4-((S)-4-ethyl-2,2-dimethyltetrahydro-2H-pyran-4-yl)piperazin-1-yl)methyl)benzyl)oxy)-N-methyl-3-phenylpropan-1-amine] reads 500 to 3000 nM. Still for that read-out and setting: the result for `CNCCC(Oc1cccc(N2CCCCC2=O)c1)c1ccccc1` (stereo not drawn) [Example 33, 1-(3-(3-(Methylamino)-1-phenylpropoxy)phenyl)piperidin-2-one] reads more than 3000 nM; that for `CNCCC(Oc1cccc(N2CCCCC2=O)c1)c1cccs1` (stereo not drawn) [Example 34, 1-(3-(3-(Methylamino)-1-(thiophen-2-yl)propoxy)phenyl)piperidin-2-one], more than 3000 nM.

For `CNCCC(Oc1cccc(N2CCN(C)CC2)c1)c1ccccc1` (stereo not drawn) [Example 35, N-methyl-3-(3-(4-methylpiperazin-1-yl)phenoxy)-3-phenylpropan-1-amine], the Ki was 500 to 3000 nM.

Regarding `CNCCC(Oc1cccc(N2CCN(C)CC2=O)c1)c1cccs1` (stereo not drawn) [Example 36, 4-Methyl-1-(3-(3-(methylamino)-1-(thiophen-2-yl)propoxy)phenyl)piperazin-2-one], the Ki is more than 3000 nM. On the same count and under the same terms, the result for `CNCCC(Oc1cccc(N2CCN(C)CC2)c1)c1cccs1` (stereo not drawn) [Example 37, N-methyl-3-(3-(4-methylpiperazin-1-yl)phenoxy)-3-(thiophen-2-yl)propan-1-amine] reads 500 to 3000 nM; that for `CNCCC(OCc1cccc(N2CCCCC2=O)c1)c1ccccc1` (stereo not drawn) [Example 38, 1-(3-((3-(Methylamino)-1-phenylpropoxy)methyl)phenyl)piperidin-2-one], 500 to 3000 nM. Still for that read-out and setting: the result for `CNCCC(OCc1cccc(N2CCCCC2=O)c1)c1cccs1` (stereo not drawn) [Example 39, 1-(3-((3-(Methylamino)-1-(thiophen-2-yl)propoxy)methyl)phenyl)piperidin-2-one] reads 500 to 3000 nM; that for `CNCCC(OCc1cccc(N2CCN(C)CC2)c1)c1ccccc1` (stereo not drawn) [Example 40, N-methyl-3-((3-(4-methylpiperazin-1-yl)benzyl)oxy)-3-phenylpropan-1-amine], 500 to 3000 nM.

For `CNCCC(OCc1cccc(N2CCN(C)CC2=O)c1)c1ccccc1` (stereo not drawn) [Example 41, 4-Methyl-1-(3-((3-(methylamino)-1-phenylpropoxy)methyl)phenyl)piperazin-2-one], the Ki was more than 3000 nM. In the case of `CNCCC(Oc1cccc(N2CCNCC2)c1)c1cccs1` (stereo not drawn) [Example 42, N-methyl-3-(3-(piperazin-1-yl)phenoxy)-3-(thiophen-2-yl)propan-1-amine], the Ki fell in the range of 500 to 3000 nM. With `CNCCC(OCc1cccc(N2CCC(N(C)C)CC2)c1)c1ccccc1` (stereo not drawn) [Example 48, N,N-dimethyl-1-(3-((3-(methylamino)-1-phenylpropoxy)methyl)phenyl)piperidin-4-amine], the Ki lay within 500 to 3000 nM. As to `CNCCC(OCc1ccc(N2CCC(c3ccccc3)(N(C)C)CC2)cc1)c1cccs1` (stereo not drawn) [Example 49, N,N-dimethyl-1-(4-((3-(methylamino)-1-(thiophen-2-yl)propoxy)methyl)phenyl)-4-phenylpiperidin-4-amine], the Ki is more than 3000 nM. In the case of `CNCC[C@H](Oc1ccc(CN2CCc3ccccc3C2=O)cc1)c1cccs1` [Example 50, (S)-(4-(3-(methylamino)-1-(thiophen-2-yl)propoxy)benzyl)-3,4-dihydroisoquinolin-1(2H)-one], the Ki lay in the range of 500 to 3000 nM.

With `CNCCC(Oc1ccc(CN2CCN(C)CC2)cc1)c1cccs1` (stereo not drawn) [Example 52, N-methyl-3-(4-((4-methylpiperazin-1-yl)methyl)phenoxy)-3-(thiophen-2-yl)propan-1-amine], the Ki was more than 3000 nM. Still for that read-out and setting: next, `CNCC[C@H](Oc1ccc(CN2CCn3cccc3C2=O)cc1)c1cccs1` [Example 53, (S)-2-(4-(3-(methylamino)-1-(thiophen-2-yl)propoxy)benzyl)-3,4-dihydropyrrolo[1,2-a]pyrazin-1(2H)-one]: 500 to 3000 nM; `CNCCC(Oc1ccc(C(=O)N2CCC(c3ccccc3)(N(C)C)CC2)cc1)c1cccs1` (stereo not drawn) [Example 56, (4-(Dimethylamino)-4-phenylpiperidin-1-yl)(4-(3-(methylamino)-1-(thiophen-2-yl)propoxy)phenyl)methanone]: more than 3000 nM.

The target in a further test is human μ-opioid receptor (Homo sapiens, UniProt P35372). Nature of the test: biochemical. In kind it is binding.
Sequence of human μ-opioid receptor (P35372 whole entry): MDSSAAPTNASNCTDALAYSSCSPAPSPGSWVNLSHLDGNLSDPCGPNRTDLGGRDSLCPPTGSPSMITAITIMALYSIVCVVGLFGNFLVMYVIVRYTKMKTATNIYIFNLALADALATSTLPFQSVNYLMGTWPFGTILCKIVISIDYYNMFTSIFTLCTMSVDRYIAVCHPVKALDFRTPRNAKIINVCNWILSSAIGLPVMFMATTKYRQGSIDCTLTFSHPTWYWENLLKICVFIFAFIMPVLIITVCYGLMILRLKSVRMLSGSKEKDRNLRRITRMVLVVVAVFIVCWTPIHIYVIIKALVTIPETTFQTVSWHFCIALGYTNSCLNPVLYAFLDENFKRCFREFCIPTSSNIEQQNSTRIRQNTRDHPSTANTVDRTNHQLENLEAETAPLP
Settings: not given
As to `CNCCC(OCc1cccc(CN2CCC(c3ccccc3)(N(C)C)CC2)c1)c1ccccc1` (stereo not drawn) [Example 25], the Ki is less than 0.1 µM. The same measure, in the same setting: next, `CNCC[C@@H](OCc1cccc(CN2CCC(c3ccccc3)(N(C)C)CC2)c1)c1ccccc1` [Example 26, (R)-N,N-dimethyl-1-(3-((3-(methylamino)-1-phenylpropoxy)methyl)benzyl)-4-phenylpiperidin-4-amine]: less than 0.1 µM.
